{"source": "patent US7998937B2", "about": "“Flavonoid compound having an antiviral activity” (Korea Research Institute of Bioscience and Biotechnology, priority 2005, dated 2011)", "key": {"[1]": {"test_system": "influenza type B (B/Lee/40) virus", "assay": "Inhibitory activity against influenza type B virus in MDCK cells (SRB)", "format": "cell-based", "settings": "10 μg/mL, influenza B/Lee/40 in MDCK cells, 48 hours, repeated 3 times"}, "mice": {"test_system": "mice", "assay": "Toxicity test in mice", "format": "in vivo", "settings": "10 g/kg, dissolved in DMSO and diluted with water, observed for 7 days", "description": "Toxicity test was performed as follows for the quercetin-7-rhamnoside of the present invention.\nQuercetin-7-rhamnoside dissolved in dimethyl sulfoxide (DMSO) and diluted with water was administered to mice (10 per each group) at a dosage of 10 g/kg."}, "[2]": {"test_system": "porcine transmissible gastroenteritis virus (TGEV)", "assay": "Anti-coronavirus inhibitory activity against TGEV in ST cells", "format": "cell-based", "settings": "48 hours", "description": "(§1) Antiviral activity of quercetin-7-rhamnoside against porcine transmissible gastroenteritis virus (TGEV) and porcine respiratory coronavirus (PRCV), another kind of coronaviruses, was evaluated. ST cells were cultured on a 96-well microplate until the bottom of each well was completely covered with cells. Remaining culture medium was completely removed and each well was washed twice with a phosphate buffer. TGEV or PRCV solution adjusted to a concentration of TCID50 was added to each well. Each of quercetin-7-rhamnoside, conventional antiviral agents purchased from Sigma-ribavirin, lamivudine, azidovudine, acycloguanine and glycyrrhizhin-dissolved in dimethyl sulfoxide was added to each well to a final concentration of 0.1-100 μg/mL. […] Similarly to the aforesaid evaluation of antiviral inhibitory activity against PEDV, c ells treated with DMSO only and those treated with both DMSO and TGEV or both DMSO and PRCV were used as control groups."}, "rotavirus (strain: OSU)": {"test_system": "rotavirus (strain: OSU)", "assay": "Inhibitory activity against rotavirus in MA104 cells (SRB)", "format": "cell-based", "settings": "10 μg/mL, rotavirus OSU in MA104 cells, 48 hours, repeated 2 times", "description": "(§2) In order to evaluate the inhibitory activity of quercetin-7-rhamnoside against rota virus, the following in vitro test was performed using MA014 cells derived from pig kidney. Inhibitory activity of quercetin-7-rhamnoside against viral proliferation was measured by the method proposed by Kwon Dur-Han, et al. (Korean Patent Publication No. 2004-101863). Inhibitory activity against rotavirus (strain: OSU) was measured. MA104 cells were cultured on a 96-well microplate until the bottom of each well was completely covered with cells. Remaining culture medium was removed and each well was washed twice with a phosphate buffer. A rota virus solution adjusted to a concentration of TCID 50 was added to each well. […] After 48 hours, the MA104 cells were observed under a microscope. After adding 100 μL of 70% acetone, each well was kept at −20° C. for 1 hour. After drying in a desiccator, 100 μL of 0.4% (w/v) SRB (sulforhodamine B) solution dissolved in 1% (v/v) acetic acid was added. After 30 minutes of staining, the SRB solution not bound to the cells was washed off with 1% (v/v) acetic acid for 4 times. After drying, 100 μL of 10 mM Tris solution (pH 10.5) was added to each well to dissolve the stained substance at the bottom of the well. Light absorbance was measured at 562 nm to evaluate the antiviral activity. As control group, viability of cells treated with DMSO only was compared with those treated with both DMSO and virus. Each test was repeated for 2 times."}, "[3]": {"test_system": "rhinovirus (strain: rhinovirus 2)", "assay": "Inhibitory activity against rhinovirus in HeLa cells (SRB)", "format": "cell-based", "settings": "10 μg/mL, rhinovirus 2 in HeLa cells, 48 hours, repeated 3 times", "description": "as §2, with “against rhino” for “against rota”, “using HeLa, one of human cervical cancer cell lines, cells.” for “using MA014 cells derived from pig kidney.”, “2004-101863). […] HeLa” for “2004-101863). Inhibitory activity against rotavirus (strain: OSU) was measured. MA104”, “A rhino” for “A rota”, “the HeLa” for “the MA104”, “for 3” for “for 2”"}, "ST cells": {"test_system": "ST cells", "assay": "Cytotoxicity (CC50) in ST cells", "settings": "0.1-100 μg/mL, 48 hours"}, "[4]": {"test_system": "porcine respiratory coronavirus (PRCV)", "assay": "Anti-coronavirus inhibitory activity against PRCV in ST cells", "format": "cell-based", "settings": "48 hours", "description": "as §1"}, "[5]": {"test_system": "porcine epidemic diarrhea virus (PEDV)", "assay": "Antiviral activity against PEDV in Vero cells (SRB staining)", "settings": "PEDV in Vero cells, maximum dosage 100 μg/mL, 48 hours"}, "Vero cells": {"test_system": "Vero cells", "assay": "Cytotoxicity (CC50) in Vero cells", "settings": "0.1-100 μg/mL, 48 hours"}, "[6]": {"test_system": "influenza type A (H1N1/WS/33) virus", "assay": "Antiviral activity against influenza type A virus in MDCK cells (SRB)", "format": "cell-based, influenza virus type A (H1N1; WS/33 strain)", "settings": "10 μg/mL, influenza A H1N1/WS/33 in MDCK cells, 48 hours, repeated 3 times", "description": "In order to evaluate the inhibitory activity of quercetin-7-rhamnoside against influenza virus, the following in vitro test was performed using MDCK cells derived from dog kidney.\nInhibitory activity of quercetin-7-rhamnoside against viral proliferation was measured by the method proposed by Kwon Dur-Han, et al. (Korean Patent Application No. 2004-101863). Inhibitory activity against influenza virus type A (H1N1; WS/33 strain) was measured. MDCK cells were cultured on a 96-well microplate until the bottom of each well was completely covered with cells. Remaining culture medium was completely removed and each well was washed twice with a phosphate buffer. Each of quercetin-7-rhamnoside; conventional antiviral agents purchased from Sigma-ribavirin and amantadine; oseltamivir (trade name: Tamiflu) purchased from Roche; and zanamivir (trade name: Relenza) purchased from Glaxo Wellcome; dissolved in dimethyl sulfoxide was added to each well to a final concentration of 10 μg/mL. […] After adding 100 μL of 70% acetone, each well was kept at −20° C. for 1 hour. After drying in a desiccator, 100 μL of 0.4% (w/v) SRB (sulforhodamine B) solution dissolved in 1% (v/v) acetic acid was added. After 30 minutes' staining, the SRB staining solution not bound to the cells was washed off with 1% (v/v) acetic acid for 4 times. After drying, 100 μL of 10 mM Tris solution (pH 10.5) was added to each well to dissolve the stained substance at the bottom of the well. Light absorbance was measured at 562 nm to evaluate the antiviral activity. As control group, viability of cells treated with DMSO only was compared with those treated with both DMSO and virus. Each test was repeated 3 times."}}, "data": [{"smiles": "C[C@@H]1O[C@@H](Oc2cc(O)c3c(=O)c(O)c(-c4ccc(O)c(O)c4)oc3c2)[C@H](O)[C@H](O)[C@H]1O", "note": "[Quercetin-7-rhamnoside, quercetin-7-rhamnoside]", "values": [{"measurement": "Inhibitory activity (%) (Mean ± S.D.)", "setting": "[1]", "result": 92.66, "unit": "%"}, {"measurement": "deaths after administration", "setting": "mice", "result": "none of them were found dead"}, {"measurement": "IC50", "setting": "[2]", "result": "(63.3 μg/mL)]"}, {"measurement": "Inhibitory activity (%) (Mean ± S.D.)", "setting": "rotavirus (strain: OSU)", "result": 77.37, "unit": "%"}, {"measurement": "Inhibitory activity (%) (Mean ± S.D.)", "setting": "[3]", "result": 77.89, "unit": "%"}, {"measurement": "CC50", "setting": "ST cells", "result": "> 100", "unit": "mg/L"}, {"measurement": "IC50", "setting": "[4]", "result": "(59.8 μg/mL)]"}, {"measurement": "IC50 (concentration required for 50% inhibition of viruses)", "setting": "[5]", "result": "(0.014 μg/mL)]"}, {"measurement": "CC50 (concentration required for 50% cytotoxicity)", "setting": "Vero cells", "result": "> 100", "unit": "mg/L"}, {"measurement": "Inhibitory activity (%) (Mean ± S.D.)", "setting": "[6]", "result": 66.03, "unit": "%"}]}]}
